Measurements published in patent US6642392B1 (priority 1997, dated 2003).
Like-named read-outs stand apart in the source and are kept apart here.

Key:
Type in all cases: in vivo
[1] = system: Eiysiphe graminis f. sp. tritici; assay: Test A: wheat powdery mildew, preventive spray on wheat seedlings; conditions: for Test A disease control rating (100 = 100% disease control, 0 = no disease control): wheat seedlings sprayed to run-off, inoculated the following day, rating relative to controls, unmarked compounds (standard test rate); for Test A disease control rating: wheat powdery mildew
How it was run: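 Preventive test: seedlings inoculated with powdery mildew spores one day after run-off spraying of a suspension. Ratings after 7 days in a 20° C growth chamber express percent disease control versus controls.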

Phytophthora infestans = conditions: for Test D disease control rating (100 = 100% disease control, 0 = no disease control): tomato seedlings sprayed to run-off, inoculated the following day, rating relative to controls, unmarked compounds (standard test rate); for Test D disease control rating: tomato late blight
Puccinia recondita = assay: Test B: wheat leaf rust, preventive spray on wheat seedlings; conditions: for Test B disease control rating (100 = 100% disease control, 0 = no disease control): wheat seedlings sprayed to run-off, inoculated the following day, rating relative to controls, unmarked compounds (standard test rate); for Test B disease control rating: wheat leaf rust
How it was run: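 Preventive test: P. recondita spores were applied one day after a run-off spray of compound suspension on wheat seedlings. Plants had 24 h at 20 °C in saturated air plus 6 days in a 20 °C growth chamber. Scoring is % disease control (100 = full) relative to controls.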

Pyricularia oryzae = conditions: for Test C disease control rating (100 = 100% disease control, 0 = no disease control): rice seedlings sprayed to run-off, inoculated the following day, rating relative to controls, unmarked compounds (standard test rate); for Test C disease control rating: rice blast
Botrytis cinerea = assay: Test E: gray mold, preventive spray on cucumber seedlings; conditions: for Test E disease control rating (100 = 100% disease control, 0 = no disease control): cucumber seedlings sprayed to run-off, inoculated the following day, rating relative to controls, unmarked compounds (standard test rate); for Test E disease control rating: gray mold on cucumber
How it was run: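 Preventive spray on cucumber seedlings used a suspension (3% acetone, 250 ppm Trem 014), applied to run-off one day before inoculation with Botrytis cinerea spores. Plants were held 48 h at 20° C in saturated air, then 5 days at 20° C. Percent disease control was scored relative to untreated plants.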

[2] = 100 = 100% disease control, 0 = no control relative to controls, unmarked entries (standard test concentration)
[3] = 100 = 100% disease control, 0 = no control, unmarked entries (standard test concentration)

## CC(C=Cc1ccccc1C#N)NC(=O)C(C#N)C(C)(C)C (mixture of isomers) [compound 307]
[1]
  Test A disease control rating (100 = 100% disease control, 0 = no disease control): 36%
Phytophthora infestans
  Test D disease control rating (100 = 100% disease control, 0 = no disease control): 0%
Puccinia recondita
  Test B disease control rating (100 = 100% disease control, 0 = no disease control): 0%
Pyricularia oryzae
  Test C disease control rating (100 = 100% disease control, 0 = no disease control): 94%
Botrytis cinerea
  Test E disease control rating (100 = 100% disease control, 0 = no disease control): 0%

## CCC1(C(=O)NCC=Cc2ccccc2CC#N)C(C)C1(Cl)Cl (stereo not shown) [compound 161]
[1]; tested at 40 ppm
  Test A disease control rating: 0%
Phytophthora infestans; tested at 40 ppm
  Test D disease control rating: 0%
Puccinia recondita; tested at 40 ppm
  Test B disease control rating: 0%
Pyricularia oryzae; tested at 40 ppm
  Test C disease control rating: 0%
Botrytis cinerea; tested at 40 ppm
  Test E disease control rating: 0%

## C[C@H](COc1cc(F)cc(F)c1Cl)NC(=O)C(C#N)C(C)(C)C (single isomer, unassigned) [169a]
[1]; [2]
  Test A disease control rating: 84%
Phytophthora infestans; [3]
  Test D disease control rating: 24%
Puccinia recondita; [3]
  Test B disease control rating: 27%
Pyricularia oryzae; [3]
  Test C disease control rating: 91%
Botrytis cinerea; [3]
  Test E disease control rating: 0%

## CC(COc1c(Cl)cc(Cl)cc1Cl)NC(=O)C(C#N)C(C)(C)C (mixture of isomers) [compound 172]
[1]; [2]
  Test A disease control rating: 0%
Phytophthora infestans; [3]
  Test D disease control rating: 0%
Puccinia recondita; [3]
  Test B disease control rating: 0%
Pyricularia oryzae; [3]
  Test C disease control rating: 86%
Botrytis cinerea; [3]
  Test E disease control rating: 95%

## CC(COc1ccccc1Br)NC(=O)C(C#N)C(C)(C)C (mixture of isomers) [8a]
[1]; [2]
  Test A disease control rating: 0%
Phytophthora infestans; [3]
  Test D disease control rating: 0%
Puccinia recondita; [3]
  Test B disease control rating: 0%
Pyricularia oryzae; [3]
  Test C disease control rating: 85%
Botrytis cinerea; [3]
  Test E disease control rating: 7%

## C[C@H](COc1cccc(F)c1)NC(=O)C(C#N)C(C)(C)C (single isomer, unassigned) [3e]
[1]; [2]
  Test A disease control rating: 86%
Phytophthora infestans; [3]
  Test D disease control rating: 68%
Puccinia recondita; [3]
  Test B disease control rating: 0%
Pyricularia oryzae; [3]
  Test C disease control rating: 100%
Botrytis cinerea; [3]
  Test E disease control rating: 0%

## CCC1(C(=O)NC(C)C=Cc2ccc(Cl)cc2Cl)C(C)C1(Cl)Cl (stereo not shown) [compound 266]
[1]
  Test A disease control rating (100 = 100% disease control, 0 = no disease control): 63%
Phytophthora infestans
  Test D disease control rating (100 = 100% disease control, 0 = no disease control): 74%
Puccinia recondita
  Test B disease control rating (100 = 100% disease control, 0 = no disease control): 0%
Pyricularia oryzae
  Test C disease control rating (100 = 100% disease control, 0 = no disease control): 91%
Botrytis cinerea
  Test E disease control rating (100 = 100% disease control, 0 = no disease control): 0%

## C=CCc1ccccc1OCC(C)NC(=O)C(C#N)C(C)(C)C (mixture of isomers) [25b]
[1]; [2]
  Test A disease control rating: 63%
Phytophthora infestans; [3]
  Test D disease control rating: 24%
Puccinia recondita; [3]
  Test B disease control rating: 0%
Pyricularia oryzae; [3]
  Test C disease control rating: 97%
Botrytis cinerea; [3]
  Test E disease control rating: 0%

## CCC1(C(=O)NC(C)COc2cc(F)cc(F)c2F)C(C)C1(Cl)Cl (stereo not shown) [compound 109]
[1]; tested at 40 ppm
  Test A disease control rating: 52%
Phytophthora infestans; tested at 40 ppm
  Test D disease control rating: 0%
Puccinia recondita; tested at 40 ppm
  Test B disease control rating: 0%
Pyricularia oryzae; tested at 40 ppm
  Test C disease control rating: 53%
Botrytis cinerea; tested at 40 ppm
  Test E disease control rating: 0%

## CCC1(C(=O)NC(C)COc2cc(I)ccc2C#N)C(C)C1(Cl)Cl (stereo not shown) [compound 247]
[1]
  Test A disease control rating (100 = 100% disease control, 0 = no disease control): 53%
Phytophthora infestans
  Test D disease control rating (100 = 100% disease control, 0 = no disease control): 0%
Puccinia recondita
  Test B disease control rating (100 = 100% disease control, 0 = no disease control): 0%
Pyricularia oryzae
  Test C disease control rating (100 = 100% disease control, 0 = no disease control): 85%
Botrytis cinerea
  Test E disease control rating (100 = 100% disease control, 0 = no disease control): 0%

## CC(COn1c(C#N)cc(Cl)c1Cl)NC(=O)C(C#N)C(C)(C)C (mixture of isomers) [compound 51]
[1]; [2]
  Test A disease control rating: 71%
Phytophthora infestans; [3]
  Test D disease control rating: 68%
Puccinia recondita; [3]
  Test B disease control rating: 0%
Pyricularia oryzae; [3]
  Test C disease control rating: 53%
Botrytis cinerea; [3]
  Test E disease control rating: 0%

## Cc1ccc(OC[C@@H](C)NC(=O)C(C#N)C(C)(C)C)c(Cl)c1 (single isomer, unassigned) [14a]
[1]; [2]
  Test A disease control rating: 0%
Phytophthora infestans; [3]
  Test D disease control rating: 45%
Puccinia recondita; [3]
  Test B disease control rating: 0%
Pyricularia oryzae; [3]
  Test C disease control rating: 94%
Botrytis cinerea; [3]
  Test E disease control rating: 58%

## C[C@H](COc1cc(F)cc(F)c1F)NC(=O)C(C#N)C(C)(C)C (single isomer, unassigned) [168b]
[1]; [2]
  Test A disease control rating: 95%
Phytophthora infestans; [3]
  Test D disease control rating: 45%
Puccinia recondita; [3]
  Test B disease control rating: 0%
Pyricularia oryzae; [3]
  Test C disease control rating: 94%
Botrytis cinerea; [3]
  Test E disease control rating: 86%

## CCC(C#N)C(=O)N[C@H](C)[C@H](Oc1ccccc1C#N)c1ccccc1 (stereo partly shown) [compound 304]
[1]
  Test A disease control rating (100 = 100% disease control, 0 = no disease control): 0%
Phytophthora infestans
  Test D disease control rating (100 = 100% disease control, 0 = no disease control): 0%
Puccinia recondita
  Test B disease control rating (100 = 100% disease control, 0 = no disease control): 0%
Pyricularia oryzae
  Test C disease control rating (100 = 100% disease control, 0 = no disease control): 97%
Botrytis cinerea
  Test E disease control rating (100 = 100% disease control, 0 = no disease control): 0%

## C[C@H](COc1ccc(Cl)cc1F)NC(=O)C(C#N)C(C)(C)C (single isomer, unassigned) [36a]
[1]; [2]
  Test A disease control rating: 0%
Phytophthora infestans; [3]
  Test D disease control rating: 89%
Puccinia recondita; [3]
  Test B disease control rating: 27%
Pyricularia oryzae; [3]
  Test C disease control rating: 99%
Botrytis cinerea; [3]
  Test E disease control rating: 0%

## C#CC(C)(C)C(C#N)C(=O)NC(C)COc1cc(F)ccc1Cl (mixture of isomers) [compound 193]
[1]; [2]
  Test A disease control rating: 0%
Phytophthora infestans; [3]
  Test D disease control rating: 0%
Puccinia recondita; [3]
  Test B disease control rating: 0%
Pyricularia oryzae; [3]
  Test C disease control rating: 100%
Botrytis cinerea; [3]
  Test E disease control rating: 55%

## CCC1(C(=O)NC(C)COc2ccccc2F)C(C)C1(Cl)Cl (mixture of isomers) [78a]
[1]; [2]
  Test A disease control rating: 0%
Phytophthora infestans; [3]
  Test D disease control rating: 0%
Puccinia recondita; [3]
  Test B disease control rating: 93%
Pyricularia oryzae; [3]
  Test C disease control rating: 90%
Botrytis cinerea; [3]
  Test E disease control rating: 74%

## CC(COc1cc(Cl)ccc1C#N)NC(=O)C(C#N)C(C)(C)C (mixture of isomers) [compound 43]
[1]; [2]
  Test A disease control rating: 0%
Phytophthora infestans; [3]
  Test D disease control rating: 66%
Puccinia recondita; [3]
  Test B disease control rating: 0%
Pyricularia oryzae; [3]
  Test C disease control rating: 86%
Botrytis cinerea; [3]
  Test E disease control rating: 0%

## CCC1(C(=O)NC(C)COc2ccc(F)cc2Br)C(C)C1(Cl)Cl (stereo not shown) [compound 124]
[1]; tested at 40 ppm
  Test A disease control rating: 83%
Phytophthora infestans; tested at 40 ppm
  Test D disease control rating: 0%
Puccinia recondita; tested at 40 ppm
  Test B disease control rating: 0%
Pyricularia oryzae; tested at 40 ppm
  Test C disease control rating: 0%
Botrytis cinerea; tested at 40 ppm
  Test E disease control rating: 0%

## CC(COc1ccccc1CF)NC(=O)C(C#N)C(C)(C)C (mixture of isomers) [compound 175]
[1]; tested at 40 ppm
  Test A disease control rating: 0%
Phytophthora infestans; tested at 40 ppm
  Test D disease control rating: 33%
Puccinia recondita; tested at 40 ppm
  Test B disease control rating: 0%
Pyricularia oryzae; tested at 40 ppm
  Test C disease control rating: 74%
Botrytis cinerea; tested at 40 ppm
  Test E disease control rating: 0%

## CCC1(C(=O)NCC=Cc2ccccc2F)C(C)C1(Cl)Cl (stereo not shown) [compound 157]
[1]; tested at 40 ppm
  Test A disease control rating: 0%
Phytophthora infestans; tested at 40 ppm
  Test D disease control rating: 0%
Puccinia recondita; tested at 40 ppm
  Test B disease control rating: 0%
Pyricularia oryzae; tested at 40 ppm
  Test C disease control rating: 97%
Botrytis cinerea; tested at 40 ppm
  Test E disease control rating: 0%

## CCC1(C(=O)NC(C)COc2cccc(F)c2F)C(C)C1(Cl)Cl (stereo not shown) [compound 104]
[1]; tested at 40 ppm
  Test A disease control rating: 84%
Phytophthora infestans; tested at 40 ppm
  Test D disease control rating: 0%
Puccinia recondita; tested at 40 ppm
  Test B disease control rating: 0%
Pyricularia oryzae; tested at 40 ppm
  Test C disease control rating: 97%
Botrytis cinerea; tested at 40 ppm
  Test E disease control rating: 0%

## CC(COc1cc(OC(F)F)ccc1C#N)NC(=O)C(C#N)C(C)C(C)(C)C (mixture of isomers) [compound 277]
[1]
  Test A disease control rating (100 = 100% disease control, 0 = no disease control): 0%
Phytophthora infestans
  Test D disease control rating (100 = 100% disease control, 0 = no disease control): 0%
Puccinia recondita
  Test B disease control rating (100 = 100% disease control, 0 = no disease control): 0%
Pyricularia oryzae
  Test C disease control rating (100 = 100% disease control, 0 = no disease control): 0%
Botrytis cinerea
  Test E disease control rating (100 = 100% disease control, 0 = no disease control): 0%
